According to patent publication US20120157439A1, “RAF INHIBITOR COMPOUNDS AND METHODS OF USE THEREOF” (GENENTECH, INC., priority 2009, published 2012):
Where two headings read alike, the source gives them in different places.

Target: T1, V600E full-length B-Raf (Homo sapiens, UniProt P15056, V600E)
T1 construct: 1 μM FSBA-MEK and 20 nM V600E full-length B-Raf; made in house; host or cells: sf9 insect cells (baculovirus)
Assay: B-Raf IC50 Assay (B-RAF V600E inhibition assay, Example A)
Format: biochemical
Text: Determining the activity of Raf in the sample is possible by a number of direct and indirect detection methods (US 2004/0082014). Activity of human recombinant B-Raf protein may be assessed in vitro by assay of the incorporation of radio labeled phosphate to recombinant MAP kinase (MEK), a known physiologic substrate of B-Raf, according to US 2004/0127496 and WO 03/022840. The activity/inhibition of V600E full-length B-Raf was estimated by measuring the incorporation of radio labeled phosphate from [γ-33P]ATP into FSBA-modified wild-type MEK (see Example A).
Activity of human recombinant B-Raf protein may be assessed in vitro by assay of the incorporation of radio labeled phosphate to recombinant MAP kinase (MEK), a known physiologic substrate of B-Raf, according to U.S. Patent Appl. Publication No. 2004/0127496 and WO 03/022840. Catalytically active human recombinant B-Raf protein is obtained by purification from sf9 insect cells infected with a human B-Raf recombinant baculovirus expression vector.
The activity/inhibition of V600E full-length B-Raf was estimated by measuring the incorporation of radio labeled phosphate from [γ-33P]ATP into FSBA-modified wild-type MEK. The […] assay mixtures contained 25 mM Na Pipes, pH 7.2, 100 mM KCl, 10 mM MgCl2, 5 mM β-glycerophosphate, 100 μM Na Vanadate, 4 μM ATP, 500 nCi [γ-33P]ATP, 1 μM FSBA-MEK and 20 nM V600E full-length B-Raf. Incubations were carried out at 22° C. in a Costar 3365 plate (Corning). Prior to the assay, the B-Raf and FSBA-MEK were preincubated together in assay buffer at 1.5× (20 μL of 30 nM and 1.5 μM, respectively) for 15 minutes, and the assay was initiated by the addition of 10 μL of […]. Following the 60-minute incubation, the assay mixtures were quenched by the addition of 100 μL of 25% TCA, the plate was mixed on a rotary shaker for 1 minute, and the product was captured on a Perkin-Elmer GF/B filter plate using a Tomtec Mach III Harvester. After sealing the bottom of the plate, 35 μL of Bio-Safe II (Research Products International) scintillation cocktail were added to each well and the plate was top-sealed and counted in a Topcount NXT (Packard).

[1] = B-Raf V600E assay of Example A: less than 100 nM, read-out: IC50
[2] = B-Raf V600E assay of Example A: less than about 1 μM, read-out: IC50
[3] = incorporation of radio labeled phosphate from [γ-33P]ATP into FSBA-modified wild-type MEK, 4 μM ATP, 20 nM V600E full-length B-Raf, 60-minute incubation, 22° C., read-out: BRAF V600E IC50

T1 sequence (P15056 whole entry V600E): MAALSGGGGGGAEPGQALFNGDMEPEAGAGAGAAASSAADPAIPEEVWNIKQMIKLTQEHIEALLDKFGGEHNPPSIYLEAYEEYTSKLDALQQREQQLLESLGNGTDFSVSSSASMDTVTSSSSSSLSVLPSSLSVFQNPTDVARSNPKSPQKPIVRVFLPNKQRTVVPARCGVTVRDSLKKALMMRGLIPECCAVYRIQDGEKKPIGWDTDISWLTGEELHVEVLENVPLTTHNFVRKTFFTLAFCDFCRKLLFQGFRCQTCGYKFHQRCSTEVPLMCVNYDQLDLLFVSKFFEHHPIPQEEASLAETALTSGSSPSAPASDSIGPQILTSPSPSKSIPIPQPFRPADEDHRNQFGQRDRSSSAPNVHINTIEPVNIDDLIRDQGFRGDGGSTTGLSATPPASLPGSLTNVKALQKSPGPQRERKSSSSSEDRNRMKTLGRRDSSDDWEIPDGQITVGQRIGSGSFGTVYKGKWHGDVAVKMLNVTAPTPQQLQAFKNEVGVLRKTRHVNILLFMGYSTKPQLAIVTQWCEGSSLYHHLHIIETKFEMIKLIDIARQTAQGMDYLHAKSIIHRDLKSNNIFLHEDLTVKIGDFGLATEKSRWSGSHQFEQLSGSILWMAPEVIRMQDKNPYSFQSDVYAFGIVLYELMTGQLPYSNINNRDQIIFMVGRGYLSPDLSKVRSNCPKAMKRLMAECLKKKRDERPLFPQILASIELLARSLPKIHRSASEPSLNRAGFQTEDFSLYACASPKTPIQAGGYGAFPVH

| IC50 [1] | IC50 [2] | IC50 [3] | Compound |
| --- | --- | --- | --- |
| < 100 nM | < 1000 nM | 18.4 nM | CCCS(=O)(=O)Nc1ccc(F)c(NC(=O)c2cn(C)c3c(N)ncnc23)c1F [Example 1, 4-amino-5-methyl-pyrrolo[3,2-d]pyrimidine-7-carboxylic acid[2,6-difluoro-3-(propane-1-sulfonylamino)-phenyl]-amide] |
| < 100 nM | < 1000 nM | 12 nM | CCS(=O)(=O)Nc1ccc(F)c(NC(=O)c2csc3c(N)ncnc23)c1F [Example 2, 4-Amino-thieno pyrimidine-7-carboxylic acid (3-ethanesulfonylamino-2,6-difluoro-phenyl)-amide] |
| < 100 nM | < 1000 nM | 3.89 nM | CCS(=O)(=O)Nc1ccc(Cl)c(NC(=O)c2csc3c(N)ncnc23)c1F [Example 3, 4-Amino-thieno[3,2-d] pyrimidine-7-carboxylic acid (6-chloro-3-ethane-sulfonylamino-2-fluoro-phenyl)-amide] |
| < 100 nM | < 1000 nM | 4.25 nM | CCS(=O)(=O)Nc1ccc(F)c(NC(=O)c2csc3c(N)ncnc23)c1Cl [Example 4, 4-Amino-thieno[3,2-d] pyrimidine-7-carboxylic acid (2-chloro-3-ethane-sulfonylamino-6-fluoro-phenyl)-amide] |
| < 100 nM | < 1000 nM | 0.86 nM | CCCS(=O)(=O)Nc1ccc(F)c(NC(=O)c2csc3c(N)ncnc23)c1Cl [Example 5, 4-Amino-thieno[3,2-d] pyrimidine-7-carboxylic acid [2-chloro-6-fluoro-3-(propane-1-sulfonyl-amino)-phenyl]-amide] |
| < 100 nM | < 1000 nM | 2.89 nM | CCCS(=O)(=O)Nc1ccc(F)c(NC(=O)c2csc3c(N)ncnc23)c1F [Example 6, 4-Amino-thieno[3,2-d] pyrimidine-7-carboxylic acid [2,6-difluoro-3-(propane-1-sulfonylamino)-phenyl]-amide] |
| < 100 nM | < 1000 nM | 1.01 nM | CCCS(=O)(=O)Nc1ccc(Cl)c(NC(=O)c2csc3c(N)ncnc23)c1F [Example 7, 4-Amino-thieno[3,2-d] pyrimidine-7-carboxylic acid [6-chloro-2-fluoro-3-(propane-1-sulfonyl-amino)-phenyl]-amide] |
| < 100 nM | < 1000 nM | 0.6 nM | CC(C)CS(=O)(=O)Nc1ccc(F)c(NC(=O)c2csc3c(N)ncnc23)c1Cl [Example 8, 4-Amino-thieno[3,2-d]pyrimidine-7-carboxylic acid[2-chloro-6-fluoro-3-(2-methyl-propane-1-sulfonylamino)-phenyl]-amide] |
| < 100 nM | < 1000 nM | 0.1 nM | CCCS(=O)(=O)Nc1ccc(Cl)c(NC(=O)c2csc3c(N)ncnc23)c1Cl [Example 9, 4-Amino-thieno[3,2-d]pyrimidine-7-carboxylic acid[2,6-dichloro-3-(propane-1-sulfonylamino)-phenyl]-amide] |
| < 100 nM | < 1000 nM | 0.72 nM | Nc1ncnc2c(C(=O)Nc3c(F)c(F)cc(NS(=O)(=O)CCCF)c3F)csc12 [Example 10, 4-Amino-thieno[3,2-d]pyrimidine-7-carboxylic acid[2,3,6-trifluoro-5-(3-fluoro-propane-1-sulfonylamino)-phenyl]-amide] |
| < 100 nM | < 1000 nM | 0.89 nM | Nc1ncnc2c(C(=O)Nc3c(F)ccc(NS(=O)(=O)c4ccccc4)c3F)csc12 [Example 11, 4-Amino-thieno[3,2-d]pyrimidine-7-carboxylic acid (3-benzenesulfonylamino-2,6-difluoro-phenyl)-amide] |
| < 100 nM | < 1000 nM | 0.22 nM | Nc1ncnc2c(C(=O)Nc3c(F)ccc(NS(=O)(=O)c4ccco4)c3F)csc12 [Example 12, 4-Amino-thieno[3,2-d]pyrimidine-7-carboxylic acid[2,6-difluoro-3-(furan-2-sulfonylamino)-phenyl]-amide] |
| < 100 nM | < 1000 nM | 0.1 nM | Nc1ncnc2c(C(=O)Nc3c(Cl)ccc(NS(=O)(=O)CCCF)c3F)csc12 [Example 13, 4-Amino-thieno[3,2-d]pyrimidine-7-carboxylic acid[6-chloro-2-fluoro-3-(3-fluoro-propane-1-sulfonylamino)-phenyl]-amide] |
| < 100 nM | < 1000 nM | 0.6 nM | Nc1ncnc2c(C(=O)Nc3c(F)ccc(NS(=O)(=O)CCCF)c3F)csc12 [Example 14, 4-Amino-thieno[3,2-d] pyrimidine-7-carboxylic acid [2,6-difluoro-3-(3-fluoro-propane-1-sulfonylamino)-phenyl]-amide] |
| < 100 nM | < 1000 nM | 0.2 nM | Nc1ncnc2c(C(=O)Nc3c(F)ccc(NS(=O)(=O)CCCF)c3Cl)csc12 [Example 15, 4-Amino-thieno[3,2-d] pyrimidine-7-carboxylic acid [2-chloro-6-fluoro-3-(3-fluoro-propane-1-sulfonylamino)-phenyl]-amide] |
| < 100 nM | < 1000 nM | 1.9 nM | Nc1ncnc2c(C(=O)Nc3c(F)ccc(NS(=O)(=O)CC4CC4)c3Cl)csc12 [Example 16, 4-Amino-thieno[3,2-d] pyrimidine-7-carboxylic acid (2-chloro-3-cycloprop-ylmethanesulfonyl-amino-6-fluoro-phenyl)-amide] |
| < 100 nM | < 1000 nM | 1.4 nM | CCCS(=O)(=O)Nc1cc(F)cc(NC(=O)c2csc3c(N)ncnc23)c1Cl [Example 17, 4-Amino-thieno[3,2-d] pyrimidine-7-carboxylic acid [2-chloro-5-fluoro-3-(propane-1-sulfonyl-amino)-phenyl]-amide] |
| < 100 nM | < 1000 nM | 7.4 nM | Nc1ncnc2c(C(=O)Nc3c(F)ccc(NS(=O)(=O)CC4CC4)c3F)csc12 [Example 18, 4-Amino-thieno[3,2-d] pyrimidine-7-carboxylic acid (3-cyclopropyl-methanesulfonyl-amino-2,6-di-fluoro-phenyl)-amide] |
| < 100 nM | < 1000 nM | 2.6 nM | CC(C)CS(=O)(=O)Nc1ccc(F)c(NC(=O)c2csc3c(N)ncnc23)c1F [Example 19, 4-Amino-thieno[3,2-d] pyrimidine-7-carboxylic acid [2,6-difluoro-3-(2-methyl-propane-1-sulfonylamino)-phenyl]-amide] |
| < 100 nM | < 1000 nM | 5.7 nM | CCCS(=O)(=O)Nc1cc(F)cc(NC(=O)c2csc3c(N)ncnc23)c1F [Example 20, 4-Amino-thieno[3,2-d] pyrimidine-7-carboxylic acid [2,5-difluoro-3-(propane-1-sulfonyl-amino)-phenyl]-amide] |
| < 100 nM | < 1000 nM | 47.1 nM | CCCS(=O)(=O)Nc1cc(Cl)cc(NC(=O)c2csc3c(N)ncnc23)c1F [Example 21, 4-Amino-thieno[3,2-d] pyrimidine-7-carboxylic acid [5-chloro-2-fluoro-3-(propane-1-sulfonyl-amino)-phenyl]-amide] |
| < 100 nM | < 1000 nM | 2 nM | CC(C)CS(=O)(=O)Nc1ccc(Cl)c(NC(=O)c2csc3c(N)ncnc23)c1F [Example 22, 4-Amino-thieno[3,2-d] pyrimidine-7-carboxylic acid [6-chloro-2-fluoro-3-(2-methyl-propane-1-sulfonylamino)-phenyl]-amide] |
| < 100 nM | < 1000 nM | 0.8 nM | CCCS(=O)(=O)Nc1cc(F)c(F)c(NC(=O)c2csc3c(N)ncnc23)c1F [Example 23, 4-Amino-thieno[3,2-d] pyrimidine-7-carboxylic acid [2,3,6-trifluoro-5-(pro-pane-1-sulfonyl-amino)-phenyl]-amide] |
| < 100 nM | < 1000 nM | 0.11 nM | Nc1ncnc2c(C(=O)Nc3c(Cl)ccc(NS(=O)(=O)CCCF)c3Cl)csc12 [Example 24, 4-Amino-thieno[3,2-d] pyrimidine-7-carboxylic acid [2,6-dichloro-3-(3-fluoro-propane-1-sulfonylamino)-phenyl]-amide] |
